# The supplement of paper PMC10307832
# Assays:
# Assay in all cases: relative viability (nuclei count vs DMSO), 5 days (fraction); higher = more cells survive
# LU99A = system: LU99A
# How it was run: (§1)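 Dosing by pin tool came one day after lung cancer cell lines were seeded in 1536-well plates, using either one drug or a fixed anchor-drug dose plus five library-drug doses (not always all listed) in √10 steps. After 5 days, nuclei were counted on 4× images. Relative viability is treated-well nuclei count divided by vehicle-well nuclei count, and values are medians of duplicate plates.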
# COR-L 105 = system: COR-L 105
# How it was run: as §1
# NCI-H358 = system: NCI-H358
# How it was run: as §1
# NCI-H2085 = system: NCI-H2085
# How it was run: as §1
# HOP-62 = system: HOP-62
# How it was run: as §1
# SK-LU-1 = system: SK-LU-1
# How it was run: as §1
# UMC-11 = system: UMC-11
# How it was run: as §1
# SW 900 = system: SW 900
# How it was run: as §1
# NCI-H2170 = system: NCI-H2170
# How it was run: as §1
# LCLC-97TM1 = system: LCLC-97TM1
# How it was run: as §1
# NCI-H1755 = system: NCI-H1755
# How it was run: as §1
# NCI-H460 = system: NCI-H460
# How it was run: as §1
# NCI-H1915 = system: NCI-H1915
# How it was run: as §1
# HCC-78 = system: HCC-78
# How it was run: as §1
# EPLC-272H = system: EPLC-272H
# How it was run: as §1
# NCI-H1944 = system: NCI-H1944
# How it was run: as §1
# NCI-H1975 = system: NCI-H1975
# How it was run: as §1
# A-427 = system: A-427
# How it was run: as §1
# LC-2-ad = system: LC-2-ad
# How it was run: as §1
# HCC-366 = system: HCC-366
# How it was run: as §1
# LXF-289 = system: LXF-289
# How it was run: as §1
# NCI-H1793 = system: NCI-H1793
# How it was run: as §1
smiles,measurement,setting,value
NC(=O)Nc1cc(-c2cccc(F)c2)sc1C(=O)N[C@H]1CCCNC1 [AZD7762] + COc1cc2c(Oc3ccc(NC(=O)C4(C(=O)Nc5ccc(F)cc5)CC4)cc3F)ccnc2cc1OCCCN1CCOCC1 [Foretinib] (partner 0.25 µM),relative viability,LU99A; first compound 0.01 µM,0.798
same,relative viability,LU99A; first compound 0.03162 µM,0.828
same,relative viability,LU99A; first compound 0.1 µM,0.791
same,relative viability,LU99A; first compound 0.3162 µM,0.822
same,relative viability,LU99A; first compound 1 µM,0.537
same,relative viability,COR-L 105; first compound 0.01 µM,1.25
same,relative viability,COR-L 105; first compound 0.03162 µM,1.01
same,relative viability,COR-L 105; first compound 0.1 µM,1.01
same,relative viability,COR-L 105; first compound 0.3162 µM,1.09
same,relative viability,COR-L 105; first compound 1 µM,0.643
same,relative viability,NCI-H358; first compound 0.01 µM,0.532
same,relative viability,NCI-H358; first compound 0.03162 µM,0.76
same,relative viability,NCI-H358; first compound 0.1 µM,0.628
same,relative viability,NCI-H358; first compound 0.3162 µM,0.647
same,relative viability,NCI-H358; first compound 1 µM,0.378
same,relative viability,NCI-H2085; first compound 0.01 µM,0.946
same,relative viability,NCI-H2085; first compound 0.03162 µM,0.938
same,relative viability,NCI-H2085; first compound 0.1 µM,0.865
same,relative viability,NCI-H2085; first compound 0.3162 µM,1.21
same,relative viability,NCI-H2085; first compound 1 µM,0.697
same,relative viability,HOP-62; first compound 0.01 µM,1.17
same,relative viability,HOP-62; first compound 0.03162 µM,1.14
same,relative viability,HOP-62; first compound 0.1 µM,1.23
same,relative viability,HOP-62; first compound 0.3162 µM,1.1
same,relative viability,HOP-62; first compound 1 µM,1.14
same,relative viability,SK-LU-1; first compound 0.01 µM,1.01
same,relative viability,SK-LU-1; first compound 0.03162 µM,0.737
same,relative viability,SK-LU-1; first compound 0.1 µM,0.461
same,relative viability,SK-LU-1; first compound 0.3162 µM,0.185
same,relative viability,SK-LU-1; first compound 1 µM,0.145
same,relative viability,UMC-11; first compound 0.01 µM,1.04
same,relative viability,UMC-11; first compound 0.03162 µM,1.1
same,relative viability,UMC-11; first compound 0.1 µM,1.11
same,relative viability,UMC-11; first compound 0.3162 µM,0.765
same,relative viability,UMC-11; first compound 1 µM,0.384
same,relative viability,SW 900; first compound 0.01 µM,0.777
same,relative viability,SW 900; first compound 0.03162 µM,0.84
same,relative viability,SW 900; first compound 0.1 µM,1.29
same,relative viability,SW 900; first compound 0.3162 µM,0.825
same,relative viability,SW 900; first compound 1 µM,0.533
same,relative viability,NCI-H2170; first compound 0.01 µM,0.925
same,relative viability,NCI-H2170; first compound 0.03162 µM,1.06
same,relative viability,NCI-H2170; first compound 0.1 µM,0.984
same,relative viability,NCI-H2170; first compound 0.3162 µM,1.04
same,relative viability,NCI-H2170; first compound 1 µM,1.13
same,relative viability,LCLC-97TM1; first compound 0.01 µM,0.891
same,relative viability,LCLC-97TM1; first compound 0.03162 µM,0.88
same,relative viability,LCLC-97TM1; first compound 0.1 µM,1.02
same,relative viability,LCLC-97TM1; first compound 0.3162 µM,0.95
same,relative viability,LCLC-97TM1; first compound 1 µM,0.948
same,relative viability,NCI-H1755; first compound 0.01 µM,0.908
same,relative viability,NCI-H1755; first compound 0.03162 µM,0.96
same,relative viability,NCI-H1755; first compound 0.1 µM,0.921
same,relative viability,NCI-H1755; first compound 0.3162 µM,0.918
same,relative viability,NCI-H1755; first compound 1 µM,0.473
same,relative viability,NCI-H460; first compound 0.01 µM,1.12
same,relative viability,NCI-H460; first compound 0.03162 µM,1
same,relative viability,NCI-H460; first compound 0.1 µM,1.01
same,relative viability,NCI-H460; first compound 0.3162 µM,0.964
same,relative viability,NCI-H460; first compound 1 µM,0.176
same,relative viability,NCI-H1915; first compound 0.01 µM,1.18
same,relative viability,NCI-H1915; first compound 0.03162 µM,1.08
same,relative viability,NCI-H1915; first compound 0.1 µM,1.09
same,relative viability,NCI-H1915; first compound 0.3162 µM,1.04
same,relative viability,NCI-H1915; first compound 1 µM,0.981
same,relative viability,HCC-78; first compound 0.01 µM,0.619
same,relative viability,HCC-78; first compound 0.03162 µM,0.611
same,relative viability,HCC-78; first compound 0.1 µM,0.589
same,relative viability,HCC-78; first compound 0.3162 µM,0.682
same,relative viability,HCC-78; first compound 1 µM,0.578
same,relative viability,EPLC-272H; first compound 0.01 µM,0.676
same,relative viability,EPLC-272H; first compound 0.03162 µM,0.654
same,relative viability,EPLC-272H; first compound 0.1 µM,0.654
same,relative viability,EPLC-272H; first compound 0.3162 µM,0.615
same,relative viability,EPLC-272H; first compound 1 µM,0.256
same,relative viability,NCI-H1944; first compound 0.01 µM,0.907
same,relative viability,NCI-H1944; first compound 0.03162 µM,0.975
same,relative viability,NCI-H1944; first compound 0.1 µM,1.06
same,relative viability,NCI-H1944; first compound 0.3162 µM,1.08
same,relative viability,NCI-H1944; first compound 1 µM,0.591
same,relative viability,NCI-H1975; first compound 0.01 µM,0.926
same,relative viability,NCI-H1975; first compound 0.03162 µM,0.943
same,relative viability,NCI-H1975; first compound 0.1 µM,0.964
same,relative viability,NCI-H1975; first compound 0.3162 µM,0.854
same,relative viability,NCI-H1975; first compound 1 µM,0.624
same,relative viability,A-427; first compound 0.01 µM,1.08
same,relative viability,A-427; first compound 0.03162 µM,0.976
same,relative viability,A-427; first compound 0.1 µM,1.03
same,relative viability,A-427; first compound 0.3162 µM,0.781
same,relative viability,A-427; first compound 1 µM,0.755
same,relative viability,LC-2-ad; first compound 0.01 µM,1.15
same,relative viability,LC-2-ad; first compound 0.03162 µM,1.09
same,relative viability,LC-2-ad; first compound 0.1 µM,1.07
same,relative viability,LC-2-ad; first compound 0.3162 µM,1.18
same,relative viability,LC-2-ad; first compound 1 µM,0.756
same,relative viability,HCC-366; first compound 0.01 µM,0.954
same,relative viability,HCC-366; first compound 0.03162 µM,0.927
same,relative viability,HCC-366; first compound 0.1 µM,0.978
same,relative viability,HCC-366; first compound 0.3162 µM,0.973
same,relative viability,HCC-366; first compound 1 µM,0.312
same,relative viability,LXF-289; first compound 0.01 µM,0.991
same,relative viability,LXF-289; first compound 0.03162 µM,1.05
same,relative viability,LXF-289; first compound 0.1 µM,1.05
same,relative viability,LXF-289; first compound 0.3162 µM,1.01
same,relative viability,LXF-289; first compound 1 µM,1.08
same,relative viability,NCI-H1793; first compound 0.01 µM,0.732
same,relative viability,NCI-H1793; first compound 0.03162 µM,0.682
same,relative viability,NCI-H1793; first compound 0.1 µM,0.595
same,relative viability,NCI-H1793; first compound 0.3162 µM,0.8
same,relative viability,NCI-H1793; first compound 1 µM,0.608
